Here are results for three compounds from US20230346824A1, “MEANS AND METHODS OF PREVENTING AND TREATING INFECTIONS” (SolyPlus GmbH, priority 2020, published 2023).

In this experiment the test system is S protein monomer. Put plainly: MST binding to RED labelled S protein monomer in 50% negative human serum (FIGS. 4, 7, 8, 10, 12). The conditions noted are these: 20 nM S protein monomer, ligand 0.5 µM - 0.2 nM arbitrary units, PBS 0.05% Tween 20, 50% negative human serum. Also on record: species or system SARS-CoV-2.
Take `Cn1c(=O)c2c(ncn2C)n(C)c1=O` [Coffein, caffeine]: the “binding to S protein monomer detected by MST” value is listed as “A binding could be detected”.
To `O=C[C@H](O)[C@@H](O)[C@@H](O)[C@H](O)CO` [D+Galactose, D-Galactose] belongs “A binding could be detected”; to `O=C[C@H](O)[C@@H](O)[C@@H](O)CO` [L+Arabinose, L-Arabinose], “No binding could be detected”.
